{"source": "patent US9663478B2", "about": "“Benzotriazine oxides as drugs targeting Mycobacterium tuberculosis” (priority 2011, dated 2017)", "experiment_in_all_cases": "microbe, parasite or virus in culture", "format_in_all_cases": "cell-based, Mycobacterium tuberculosis", "key": {"[1]": {"test_system": "Mtb strain resistant to P-aminosalicyclic acid ATCC 35821", "conditions": "for MIC: Mycobacterium tuberculosis"}, "[2]": {"test_system": "Mtb strain resistant to Streptomycin ATCC 35820", "conditions": "for MIC: Mycobacterium tuberculosis"}, "[3]": {"test_system": "Mtb strain resistant to Ethambutol ATCC 35837", "conditions": "for MIC: Mycobacterium tuberculosis"}, "[4]": {"test_system": "Mtb strain resistant to Ethionamide ATCC 35830", "conditions": "for MIC: Mycobacterium tuberculosis"}, "[5]": {"test_system": "Mtb strain resistant to Kanamycin ATCC 35827", "conditions": "for MIC: Mycobacterium tuberculosis, ATCC35827, read-out: Activity against Mtb strain resistant to Kanamycin ATCC 35827"}, "[6]": {"test_system": "Mtb strain resistant to Isoniazid ATCC 35822", "conditions": "for MIC: Mycobacterium tuberculosis, ATCC35822, read-out: Activity against Mtb strain resistant to Isoniazid ATCC 35822"}, "[7]": {"conditions": "ATCC35821, read-out: MIC, Mtb strain resistant to P-aminosalicyclic acid ATCC 35821"}, "[8]": {"conditions": "ATCC35820, 168 h, read-out: MIC, Mtb strain resistant to Streptomycin ATCC 35820"}, "[9]": {"conditions": "ATCC35837, read-out: MIC, Mtb strain resistant to Ethambutol ATCC 35837"}, "[10]": {"conditions": "ATCC35830, read-out: MIC, Mtb strain resistant to Ethionamide ATCC 35830"}, "[11]": {"conditions": "ATCC35821, read-out: Activity against Mtb strain resistant to P-aminosalicyclic acid ATCC 35821"}, "[12]": {"conditions": "ATCC35820, read-out: Activity against Mtb strain resistant to Streptomycin ATCC 35820"}, "[13]": {"conditions": "ATCC35837, read-out: Activity against Mtb strain resistant to Ethambutol ATCC 35837"}, "[14]": {"conditions": "ATCC35830, read-out: Activity against Mtb strain resistant to Ethionamide ATCC 35830"}}, "note": "Where two headings read alike, the source gives them in different places."}
{"smiles": "CN(Cc1ccccc1)c1n[n+]([O-])c2cc3c(cc2[n+]1[O-])CCC3", "note": "[Compound 20t, 3-(benzyl(methyl)amino)-7,8-dihydro-6H-indeno[5,6-e][1,2,4]triazine 1,4-dioxide]", "values": [{"measurement": "MIC", "setting": "[1]; [7]", "result": 0.07, "unit": "µg/mL"}, {"measurement": "MIC", "setting": "[2]; [8]", "result": "< 0.07", "unit": "µg/mL"}, {"measurement": "MIC", "setting": "[3]; [9]", "result": 0.15, "unit": "µg/mL"}, {"measurement": "MIC", "setting": "[4]; [10]", "result": 0.07, "unit": "µg/mL"}]}
{"smiles": "[O-][n+]1nc(N2CCCC2)[n+]([O-])c2ccccc21", "note": "[Compound 17q, 3-(pyrrolidin-1-yl)benzo[e][1,2,4]triazine 1,4-dioxide]", "values": [{"measurement": "MIC", "setting": "[1]; [7]", "result": 0.62, "unit": "µg/mL"}, {"measurement": "MIC", "setting": "[2]; [8]", "result": 0.02, "unit": "µg/mL"}, {"measurement": "MIC", "setting": "[3]; [9]", "result": 0.31, "unit": "µg/mL"}, {"measurement": "MIC", "setting": "[4]; [10]", "result": 0.31, "unit": "µg/mL"}]}
{"smiles": "CCNc1n[n+]([O-])c2cc3c(cc2[n+]1[O-])CCC3", "note": "[SRI-012286]", "values": [{"measurement": "MIC", "setting": "[1]; [11]", "result": 1.25, "unit": "µg/mL"}, {"measurement": "MIC", "setting": "[5]", "result": 1.25, "unit": "µg/mL"}, {"measurement": "MIC", "setting": "[6]", "result": 2.5, "unit": "µg/mL"}, {"measurement": "MIC", "setting": "[2]; [12]", "result": 0.63, "unit": "µg/mL"}, {"measurement": "MIC", "setting": "[3]; [13]", "result": 1.25, "unit": "µg/mL"}, {"measurement": "MIC", "setting": "[4]; [14]", "result": 1.25, "unit": "µg/mL"}]}
{"smiles": "CN(C)c1n[n+]([O-])c2cc3c(cc2[n+]1[O-])CCC3", "note": "[Compound 20s, 3-(dimethylamino)-7,8-dihydro-6H-indeno[5,6-e][1,2,4]triazine 1,4-dioxide]", "values": [{"measurement": "MIC", "setting": "[1]; [7]", "result": 0.15, "unit": "µg/mL"}, {"measurement": "MIC", "setting": "[2]; [8]", "result": "< 0.07", "unit": "µg/mL"}, {"measurement": "MIC", "setting": "[3]; [9]", "result": 0.31, "unit": "µg/mL"}, {"measurement": "MIC", "setting": "[4]; [10]", "result": 0.15, "unit": "µg/mL"}]}
{"smiles": "CCNc1n[n+]([O-])c2cccc(C)c2[n+]1[O-]", "note": "[Compound 15ea, Ethyl-(5-methyl-1,4-dioxy-benzo[1,2,4]triazin-3-yl)-amine]", "values": [{"measurement": "MIC, Mtb strain resistant to P-aminosalicyclic acid ATCC 35821", "setting": "[1]; Table 5", "result": 0.31, "unit": "µg/mL"}, {"measurement": "MIC, Mtb strain resistant to Kanamycin ATCC 35827", "setting": "[5]; Table 5", "result": 0.62, "unit": "µg/mL"}, {"measurement": "MIC, Mtb strain resistant to Isoniazid ATCC 35822", "setting": "[6]; Table 5", "result": 0.62, "unit": "µg/mL"}, {"measurement": "MIC, Mtb strain resistant to Streptomycin ATCC 35820", "setting": "[2]; Table 5", "result": 0.16, "unit": "µg/mL"}, {"measurement": "MIC, Mtb strain resistant to Ethambutol ATCC 35837", "setting": "[3]; Table 5", "result": 0.62, "unit": "µg/mL"}, {"measurement": "MIC, Mtb strain resistant to Ethionamide ATCC 35830", "setting": "[4]; Table 5", "result": 0.31, "unit": "µg/mL"}]}
{"smiles": "CN(C)c1n[n+]([O-])c2cc3c(cc2[n+]1[O-])CCC3", "note": "[SRI-012563]", "values": [{"measurement": "MIC", "setting": "[5]", "result": 0.31, "unit": "µg/mL"}, {"measurement": "MIC", "setting": "[6]", "result": "< 0.07", "unit": "µg/mL"}]}
{"smiles": "[O-][n+]1nc(N2CCCCC2)[n+]([O-])c2cc3c(cc21)CCC3", "note": "[Compound 20r, 3-(piperidin-1-yl)-7,8-dihydro-6H-indeno[5,6-e][1,2,4]triazine 1,4-dioxide]", "values": [{"measurement": "MIC", "setting": "[1]; [7]", "result": 0.31, "unit": "µg/mL"}, {"measurement": "MIC", "setting": "[2]; [8]", "result": 0.15, "unit": "µg/mL"}, {"measurement": "MIC", "setting": "[3]; [9]", "result": 0.31, "unit": "µg/mL"}, {"measurement": "MIC", "setting": "[4]; [10]", "result": 0.31, "unit": "µg/mL"}]}
{"smiles": "CN(CCc1ccccc1)c1n[n+]([O-])c2cc3c(cc2[n+]1[O-])CCC3", "note": "[SRI-012565]", "values": [{"measurement": "MIC", "setting": "[5]", "result": 0.15, "unit": "µg/mL"}, {"measurement": "MIC", "setting": "[6]", "result": 0.07, "unit": "µg/mL"}]}
{"smiles": "[O-][n+]1nc(NC2CCC2)[n+]([O-])c2cc3c(cc21)CCC3", "note": "[SRI-012403]", "values": [{"measurement": "MIC", "setting": "[5]", "result": 1.25, "unit": "µg/mL"}, {"measurement": "MIC", "setting": "[6]", "result": 1.25, "unit": "µg/mL"}]}
{"smiles": "[O-][n+]1nc(N2CCCC2)[n+]([O-])c2cc3c(cc21)CCC3", "note": "[SRI-012530]", "values": [{"measurement": "MIC", "setting": "[1]; [11]", "result": 0.31, "unit": "µg/mL"}, {"measurement": "MIC", "setting": "[5]", "result": 0.63, "unit": "µg/mL"}, {"measurement": "MIC", "setting": "[6]", "result": 0.31, "unit": "µg/mL"}, {"measurement": "MIC", "setting": "[2]; [12]", "result": 0.16, "unit": "µg/mL"}, {"measurement": "MIC", "setting": "[3]; [13]", "result": 0.62, "unit": "µg/mL"}, {"measurement": "MIC", "setting": "[4]; [14]", "result": 0.62, "unit": "µg/mL"}]}
{"smiles": "CC1CCCCN1c1n[n+]([O-])c2cc3c(cc2[n+]1[O-])CCC3", "note": "(stereo not drawn) [SRI-012567]", "values": [{"measurement": "MIC", "setting": "[5]", "result": 0.62, "unit": "µg/mL"}, {"measurement": "MIC", "setting": "[6]", "result": 0.31, "unit": "µg/mL"}]}
{"smiles": "CCNc1n[n+]([O-])c2cc3c(cc2[n+]1[O-])CCCC3", "note": "[SRI-012496]", "values": [{"measurement": "MIC", "setting": "[1]; [11]", "result": 1.25, "unit": "µg/mL"}, {"measurement": "MIC", "setting": "[5]", "result": 1.25, "unit": "µg/mL"}, {"measurement": "MIC", "setting": "[6]", "result": 1.25, "unit": "µg/mL"}, {"measurement": "MIC", "setting": "[2]; [12]", "result": 1.25, "unit": "µg/mL"}, {"measurement": "MIC", "setting": "[3]; [13]", "result": 1.25, "unit": "µg/mL"}, {"measurement": "MIC", "setting": "[4]; [14]", "result": 1.25, "unit": "µg/mL"}]}
{"smiles": "[O-][n+]1nc(NC2CCC2)[n+]([O-])c2cc3c(cc21)CCCC3", "note": "[SRI-012497]", "values": [{"measurement": "MIC", "setting": "[1]; [11]", "result": 1.25, "unit": "µg/mL"}, {"measurement": "MIC", "setting": "[5]", "result": 2.5, "unit": "µg/mL"}, {"measurement": "MIC", "setting": "[6]", "result": 2.5, "unit": "µg/mL"}, {"measurement": "MIC", "setting": "[2]; [12]", "result": 1.25, "unit": "µg/mL"}, {"measurement": "MIC", "setting": "[3]; [13]", "result": 2.5, "unit": "µg/mL"}, {"measurement": "MIC", "setting": "[4]; [14]", "result": 1.25, "unit": "µg/mL"}]}
{"smiles": "O=S1(=O)CCN(c2n[n+]([O-])c3cc4c(cc3[n+]2[O-])CCC4)CC1", "note": "[SRI-012566]", "values": [{"measurement": "MIC", "setting": "[1]; [11]", "result": 2.5, "unit": "µg/mL"}, {"measurement": "MIC", "setting": "[5]", "result": 2.5, "unit": "µg/mL"}, {"measurement": "MIC", "setting": "[6]", "result": 2.5, "unit": "µg/mL"}, {"measurement": "MIC", "setting": "[2]; [12]", "result": 2.5, "unit": "µg/mL"}, {"measurement": "MIC", "setting": "[3]; [13]", "result": 2.5, "unit": "µg/mL"}, {"measurement": "MIC", "setting": "[4]; [14]", "result": 0.62, "unit": "µg/mL"}]}
